Key:
11β-HSD = conditions: mice, topical treatment, oral corticosterone; cited from earlier work
11β-HSD1 = 11β-HSD1 (Homo sapiens, UniProt P28845); assay: 11β-HSD1 activity (conversion of cortisone to cortisol) in primary human dermal fibroblasts; assay type: cell-based; design: from tissue; host or cells: adipose tissue of abdominally obese healthy adult male volunteers
Protocol: FIG. 5: 11β-HSD1 activity in primary human dermal fibroblasts.
In order to investigate the effects, prevalence and relevance of 11β-HSD1 in human skin and diabetic wound healing the effects of the proinflammatory cytokine, IL-1β on human dermal fibroblasts (HDFs) in culture was assessed in the preclinical setting. […] In these experiments RU486 (mifepristone) was used as a competitive cortisol antagonist.

11β-HSD1 mRNA expression = 11β-HSD1 mRNA expression in cultured human dermal fibroblasts; assay type: cell-based; conditions: HDFs in culture; cortisol 24 h; IL-1β 10 ng/mL; cortisol 100 nM in combination
HUVEC tubule formation = assay: HUVEC tubule formation, in vitro model of angiogenesis; assay type: cell-based, human; conditions: IL-1β 10 ng/ml; cortisone 200 nM; AZD4017 1 μM with cortisone; biological n=1

Chain of 11β-HSD1 (P28845 whole entry): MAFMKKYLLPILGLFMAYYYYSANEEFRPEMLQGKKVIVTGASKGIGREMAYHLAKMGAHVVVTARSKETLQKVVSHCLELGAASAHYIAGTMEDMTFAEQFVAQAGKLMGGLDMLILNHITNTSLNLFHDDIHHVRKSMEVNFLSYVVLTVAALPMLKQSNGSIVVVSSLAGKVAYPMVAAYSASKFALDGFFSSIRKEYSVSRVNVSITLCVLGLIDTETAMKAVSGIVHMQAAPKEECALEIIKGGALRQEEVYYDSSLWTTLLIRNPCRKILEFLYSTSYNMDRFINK

For `CC1(C)[C@@H](OC(=O)CCC(=O)O)CC[C@]2(C)[C@H]3C(=O)C=C4[C@@H]5C[C@@](C)(C(=O)O)CC[C@]5(C)CC[C@@]4(C)[C@]3(C)CC[C@@H]12` [carbenoxolone, reference compound], the “effect on delay in wound healing caused by corticosteroid excess” value (11β-HSD) is listed as “reverse the delay in wound healing” and the “inhibition of conversion of E to F” value (11β-HSD1; 25 μM, 18 h, HDFs pretreated with IL-1β and cortisol) is listed as “did not significantly inhibit”.

For `C[C@]12CCC(=O)C=C1CC[C@@H]1[C@@H]2[C@@H](O)C[C@@]2(C)[C@H]1CC[C@]2(O)C(=O)CO` [cortisol, reference compound], the “increase in 11β-HSD1 mRNA expression” value (11β-HSD1 mRNA expression) was 6 fold.

With `C[C@]12CCC(=O)C=C1CC[C@@H]1[C@@H]2C(=O)C[C@@]2(C)[C@H]1CC[C@]2(O)C(=O)CO` [cortisone, reference compound] the tubule formation (HUVEC tubule formation) was “blocked”.

With “IL-1β: interleukin 1β (pro-inflammatory cytokine)” the “increase in 11β-HSD1 mRNA expression” value (11β-HSD1 mRNA expression) was 10 fold, the tubule formation (HUVEC tubule formation) was “stimulate tubule formation” and the “increase in conversion of cortisone (E) to cortisol (F) relative to untreated HDFs” value (11β-HSD1; 24 h IL-1β pretreatment, conversion over 48 h) was 6 fold.
